The values that follow come from US8906868B2, “Aminoglycoside derivatives” (Rempex Pharmaceuticals, Inc., priority 2010, dated 2014).

≈ marks a conversion by molar mass, not a printed value. Like-named read-outs stand apart in the source and are kept apart here.

Experiment [1] relates to ECM6006 aph(3′)-III. In words: microbe, parasite or virus in culture. The experiment is classed as cell-based, Escherichia coli. The note with it: Escherichia coli, read-out: Compound MIC on Bacterial Strains: ECM6006 aph(3′)-III. As to the method: (§1) To compare microbiological activity of the test compounds, minimum inhibitory concentrations (MIC.s) were determined. Antibiotic MICs were obtained using the broth microdilution method according to Clinical and Laboratory Standards Institute (CLSI) approved guidelines (Methods for dilution antimicrobial susceptibility tests for bacteria that grow aerobically; approved standard—7th ed. CLSI document M7-A7. Clinical and Laboratory Standards Institute, Wayne, Pa., incorporated herein by reference in its entirety). Antibiotics were dissolved as specified by CLSI (Performance standards for antimicrobial susceptibility testing; Seventeenth informational supplement. CLSI document M100-S17. Clinical and Laboratory Standards Institute, Wayne, Pa., incorporated herein by reference in its entirety), and were serially diluted 2-fold in cation adjusted Mueller Hinton Broth (CaMHB) at 2× concentration. Bacterial inoculums were prepared in CaMHB by suspension of a colony from an agar plate that was prepared the previous day to obtain a final concentration of 5×10^5CFU/ml. The plates were incubated for 18 hours at 35° C. […] MIC.s were determined by reading the turbidity of plate wells using a SpectraMax Plus384 plate reader (Molecular Devices, Sunnyvale, Calif., USA) at 600 nm and were confirmed by visual inspection.
(§2) Activity of the test compounds was determined using QC strains and strains with known aminoglycoside resistance mechanisms (TABLE 3). This specific panel contained strains expressing enzymes that covalently modify N2″, N3 and N3′ positions.

Experiment [2] has as its system ECM6009 aac(3)-II. In words: microbe, parasite or virus in culture. It is filed as cell-based, Escherichia coli. Conditions: Escherichia coli, read-out: Compound MIC on Bacterial Strains: ECM6009 aac(3)-II. As to the method: as §1, §2
Experiment [3] relates to ECM6010 ant(2″)-I. Put plainly: microbe, parasite or virus in culture. The note with it: Escherichia coli, read-out: Compound MIC on Bacterial Strains: ECM6010 ant(2″)-I. The experiment is classed as cell-based, Escherichia coli. As to the method: as §1, §2
In experiment [4] the test system is ECM6011 aph(3′)-I. In words: microbe, parasite or virus in culture. The experiment is classed as cell-based, Escherichia coli. Conditions: Escherichia coli, read-out: Compound MIC on Bacterial Strains: ECM6011 aph(3′)-I. The method, then:
as §1, §2

The test system of experiment [5] is ECM6003 rmtB. In words: microbe, parasite or virus in culture. The experiment is classed as cell-based, Escherichia coli. Conditions: Escherichia coli; Table 3; read-out: Compound MIC on Bacterial Strains: ECM6003 rmtB. As to the method: as §1, §2
The panel also contained a strain expressing ribosomal RNA methylase, RmtB.

In experiment [6] the test system is EC1002 aph(3′)-IV. In words: organism not typed. It is filed as cell-based. The note with it: read-out: Compound MIC on Bacterial Strains: EC1002 aph(3′)-IV. The method, then:
as §1, §2

Experiment [7] concerns EC1001 acc(6′)-Ib. Put plainly: microbe, parasite or virus in culture. Conditions: Escherichia coli; Table 4; read-out: Compound MIC on Bacterial Strains: Escherichia coli EC1001 acc(6′)-Ib. It is filed as cell-based, Escherichia coli. As to the method:
as §1

Experiment [8] relates to ECM6007 aac(6′) + aph(2″). Put plainly: microbe, parasite or virus in culture. The experiment is classed as cell-based, Escherichia coli. Conditions: Escherichia coli, 18 h; Table 4; read-out: Compound MIC on Bacterial Strains: Escherichia coli ECM6007 aac(6′) + aph(2″). As to the method: as §1
Experiment [9] relates to ACM1005 ATCC 19004. In words: MIC, broth microdilution. It is filed as cell-based, Acinetobacter baumannii. The note with it: Acinetobacter baumannii, ATCC19004; Table 4; read-out: Compound MIC on Bacterial Strains: Acinetobacter baumannii ACM1005 ATCC 19004. The method, then:
as §1

Experiment [10] deals with ACM1006 acc(6′)-Ib. In words: microbe, parasite or virus in culture. The note with it: Acinetobacter baumannii; Table 4; read-out: Compound MIC on Bacterial Strains: Acinetobacter baumannii ACM1006 acc(6′)-Ib. It is filed as cell-based, Acinetobacter baumannii. As to the method:
as §1

For experiment [11], the system named is PAM3072 aac(6′)-II. In words: microbe, parasite or virus in culture. It is filed as cell-based, Pseudomonas aeruginosa. Conditions: Pseudomonas aeruginosa, Table 5; read-out: Compound MIC on Bacterial Strains: Pseudomonas aeruginosa PAM3072 aac(6′)-II. As to the method: as §1
For experiment [12], the system named is PAM3073 aac(6′)-I. In words: microbe, parasite or virus in culture. The experiment is classed as cell-based, Pseudomonas aeruginosa. The note with it: Pseudomonas aeruginosa, Table 5; read-out: Compound MIC on Bacterial Strains: Pseudomonas aeruginosa PAM3073 aac(6′)-I. As to the method:
as §1

Experiment [13] relates to Escherichia coli (ATCC 25922). In words: MIC, broth microdilution. Conditions: Escherichia coli. Background: In broth dilution the organism is exposed to a series of concentrations in liquid medium.
The test system of experiment [14] is Staphylococcus aureus (ATCC 29213). Put plainly: MIC, broth microdilution. The note with it: Staphylococcus aureus.
Experiment [15] has as its system Klebsiella pneumonia (ATCC 43816). Put plainly: MIC, broth microdilution. Conditions: Klebsiella pneumoniae, ATCC43816, read-out: Compound MIC on Bacterial Strains: K. pneumonia ATCC 43816.
The subject of experiment [16] is Pseudomonas aeruginosa (ATCC 27853). Put plainly: MIC, broth microdilution. Conditions: Pseudomonas aeruginosa.
Experiment [17] deals with Acinetobacter baumannii (ATCC 19606). Put plainly: MIC, broth microdilution. The note with it: Acinetobacter baumannii, ATCC19606, read-out: Compound MIC on Bacterial Strains: A. baumannii ATCC 19606.
The mark [18] stands for this setting: ATCC25922, read-out: Compound MIC on Bacterial Strains: E. coli ATCC 25922.
Where [19] appears, read: ATCC25922, read-out: Compound MIC on Bacterial Strains: ECM6000 ATCC 25922.
The mark [20] stands for this setting: ATCC25922, read-out: Compound MIC on Bacterial Strains: Escherichia coli ECM6000 ATCC 25922.
[21] abbreviates: ATCC29213, read-out: Compound MIC on Bacterial Strains: S. aureus ATCC 29213, QC strain, Table 2.
Setting [22] is: ATCC29213, read-out: Compound MIC on Bacterial Strains: Staphylococcus aureus SAM1000 ATCC 29213, Table 5.
The mark [23] stands for this setting: ATCC27853, read-out: Compound MIC on Bacterial Strains: P. aeruginosa ATCC 27853.
Where [24] appears, read: ATCC27853, read-out: Compound MIC on Bacterial Strains: Pseudomonas aeruginosa PAM3034 ATCC 27853.

For the compound `CN[C@@H]1[C@@H](O)[C@@H](O[C@@H]2[C@@H](O)[C@H](O[C@H]3O[C@H](CNCC(O)CO)CC[C@H]3N)[C@@H](N)C[C@H]2NC(=O)[C@@H](O)CCN)OC[C@]1(C)O` (stereo partly drawn) [Compound 8, (2S)-4-amino-N-((1R,2S,3S,4R,5S)-5-amino-4-((2R,3R,6S)-3-amino-6-((2,3-dihydroxypropylamino)methyl)tetrahydro-2H-pyran-2-yloxy)-2-((2R,3R,4R,5R)-3,5-dihydroxy-5-methyl-4-(methylamino)tetrahydro-2H-pyran-2-yloxy)-3-hydroxycyclohexyl)-2-hydroxybutanamide], the MIC in experiment [1] is 1 to 8 µg/mL (≈ 1.6 to 12.8 µM); in [2], less than 1 µg/mL; in experiment [3], less than 1 µg/mL; in [4], less than 1 µg/mL; in experiment [5] it was more than 8 µg/mL; in experiment [6], less than 1 µg/mL. Further, the MIC in [7] is less than 1 µg/mL; in experiment [8], less than 1 µg/mL; in experiment [9], 1 to 8 µg/mL (≈ 1.6 to 12.8 µM); in experiment [10], 1 to 8 µg/mL (≈ 1.6 to 12.8 µM); in experiment [11], more than 8 µg/mL; in experiment [12], 1 to 8 µg/mL (≈ 1.6 to 12.8 µM). For the same compound, the MIC in experiment [13] (setting [18]), in experiment [13] (setting [19]), in experiment [13] (setting [20]), in experiment [14] (setting [21]), in experiment [14] (setting [22]) and in experiment [15] was less than 1 µg/mL throughout. Moreover, the MIC in experiment [16] (setting [23]) was 1 to 8 µg/mL (≈ 1.6 to 12.8 µM); in experiment [16] (setting [24]) it was 1 to 8 µg/mL (≈ 1.6 to 12.8 µM); in experiment [17], more than 8 µg/mL.
With `CN[C@@H]1[C@@H](O)[C@@H](O[C@@H]2[C@@H](O)[C@H](O[C@H]3O[C@H](CNCCF)CC[C@H]3N)[C@@H](N)C[C@H]2NC(=O)[C@@H](O)CN)OC[C@]1(C)O` [Compound 46, (S)-3-amino-N-((1R,2S,3S,4R,5S)-5-amino-4-((2R,3R,6S)-3-amino-6-((2-fluoroethylamino)methyl)tetrahydro-2H-pyran-2-yloxy)-2-((2R,3R,4R,5R)-3,5-dihydroxy-5-methyl-4-(methylamino)tetrahydro-2H-pyran-2-yloxy)-3-hydroxycyclohexyl)-2-hydroxypropanamide], the MIC was less than 1 µg/mL in [1]; less than 1 µg/mL in [2]; less than 1 µg/mL in experiment [3]; less than 1 µg/mL in [4]; more than 8 µg/mL in [5]; less than 1 µg/mL in experiment [6]. For the same compound, the MIC in experiment [7] was 1 to 8 µg/mL (≈ 1.72 to 13.7 µM); in [8], less than 1 µg/mL; in [9], 1 to 8 µg/mL (≈ 1.72 to 13.7 µM); in experiment [10], 1 to 8 µg/mL (≈ 1.72 to 13.7 µM); in experiment [11], more than 8 µg/mL; in experiment [12] it was 1 to 8 µg/mL (≈ 1.72 to 13.7 µM). The MIC in [13] (setting [18]), in experiment [13] (setting [19]), in experiment [13] (setting [20]), in experiment [14] (setting [21]), in experiment [14] (setting [22]) and in [15] was less than 1 µg/mL in each case. In addition, the MIC was 1 to 8 µg/mL (≈ 1.72 to 13.7 µM) in experiment [16] (setting [23]), 1 to 8 µg/mL (≈ 1.72 to 13.7 µM) in [16] (setting [24]) and more than 8 µg/mL in experiment [17].
Consider `CN[C@@H]1[C@@H](O)[C@@H](O[C@@H]2[C@@H](O)[C@H](O[C@H]3O[C@H](CNCCO)CC[C@H]3N)[C@@H](N)C[C@H]2NC(=O)C2(O)CNC2)OC[C@]1(C)O` [Compound 43, N-((1R,2S,3S,4R,5S)-5-amino-4-((2R,3R,6S)-3-amino-6-((2-hydroxyethylamino)methyl)tetrahydro-2H-pyran-2-yloxy)-2-((2R,3R,4R,5R)-3,5-dihydroxy-5-methyl-4-(methylamino)tetrahydro-2H-pyran-2-yloxy)-3-hydroxycyclohexyl)-3-hydroxyazetidine-3-carboxamide], for which the MIC in experiment [1] was less than 1 µg/mL; in [2], 1 to 8 µg/mL (≈ 1.69 to 13.5 µM); in experiment [3] it was less than 1 µg/mL; in [4], less than 1 µg/mL; in experiment [5], more than 8 µg/mL; in [6] it was 1 to 8 µg/mL (≈ 1.69 to 13.5 µM). The MIC was 1 to 8 µg/mL (≈ 1.69 to 13.5 µM) in experiment [7]; less than 1 µg/mL in [8]; 1 to 8 µg/mL (≈ 1.69 to 13.5 µM) in [9]; less than 1 µg/mL in experiment [10]; more than 8 µg/mL in experiment [11]; 1 to 8 µg/mL (≈ 1.69 to 13.5 µM) in [12]. Also, the MIC in experiment [13] (setting [18]), in [13] (setting [19]), in experiment [13] (setting [20]), in experiment [14] (setting [21]), in experiment [14] (setting [22]) and in experiment [15] was less than 1 µg/mL each time. In addition, the MIC is 1 to 8 µg/mL (≈ 1.69 to 13.5 µM) in experiment [16] (setting [23]), 1 to 8 µg/mL (≈ 1.69 to 13.5 µM) in experiment [16] (setting [24]) and more than 8 µg/mL in [17].
On to `CCN[C@@H]1C[C@H](N)[C@@H](O[C@H]2OC(CN)=CC[C@H]2N)[C@H](O)[C@H]1O[C@H]1OC[C@](C)(O)[C@H](NC)[C@H]1O` [Netilmicin, reference compound], for which the MIC in experiment [1] was less than 1 µg/mL; in [2], more than 8 µg/mL; in [3], less than 1 µg/mL; in [4] it was less than 1 µg/mL; in experiment [5], more than 8 µg/mL; in experiment [6], less than 1 µg/mL. Moreover, the MIC was more than 8 µg/mL in experiment [7]; less than 1 µg/mL in [8]; 1 to 8 µg/mL (≈ 2.1 to 16.8 µM) in experiment [9]; more than 8 µg/mL in experiment [10]; more than 8 µg/mL in experiment [11]; more than 8 µg/mL in experiment [12]. The MIC in experiment [13] (setting [18]), in [13] (setting [19]), in experiment [13] (setting [20]), in [14] (setting [21]), in experiment [14] (setting [22]) and in experiment [15] was less than 1 µg/mL in each case. In addition, the MIC is 1 to 8 µg/mL (≈ 2.1 to 16.8 µM) in experiment [16] (setting [23]), 1 to 8 µg/mL (≈ 2.1 to 16.8 µM) in experiment [16] (setting [24]) and more than 8 µg/mL in experiment [17].
